Laboratory results as given in patent US12297190B2, “Modulators of STING (stimulator of interferon genes)” (PFIZER INC., priority 2019, dated 2025).
pEC50, pKi: −log10 of the molar value.

What was measured:
STING [1] = biological target: T1, STING (Homo sapiens, UniProt Q86WV6, G230A/H232R/R293Q/R71H); experiment: Phosphorylation of IRF3: THP-1 cell ELISA; format: cell-based; details: THP-1 cells, 3 hours incubation, phospho-IRF3 ELISA; read-out: THP-1 CELL P-IRF3 EC50
T1 construct: host or cells: THP-1 and THP-1 Lucia ISG cells
T1 sequence (Q86WV6 whole entry R71H/G230A/H232R/R293Q): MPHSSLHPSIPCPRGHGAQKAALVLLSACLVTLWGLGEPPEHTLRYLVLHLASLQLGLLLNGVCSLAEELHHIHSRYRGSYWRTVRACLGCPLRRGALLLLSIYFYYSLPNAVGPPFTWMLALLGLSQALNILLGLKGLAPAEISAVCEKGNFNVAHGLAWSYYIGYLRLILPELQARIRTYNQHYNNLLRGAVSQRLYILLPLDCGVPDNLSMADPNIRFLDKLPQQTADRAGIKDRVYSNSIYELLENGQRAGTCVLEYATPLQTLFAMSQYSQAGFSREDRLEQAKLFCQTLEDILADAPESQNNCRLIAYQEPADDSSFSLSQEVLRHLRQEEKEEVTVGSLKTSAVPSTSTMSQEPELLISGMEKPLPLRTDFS
Description: Phosphorylation of IRF3: THP-1 Cell ELISA
STING activation results in recruitment of TBK1 and phosphorylation of IRF3 transcription factor before induction of type I interferons. THP-1 cells (InvivoGen) were grown in RPMI media plus 2 mM L-glutamine, 10% fetal bovine serum, and 0.5% Pen-Strep. 10^4 cells were seeded in 96-well plates and incubated overnight 37° C., 5% CO2. Compounds serial diluted compounds in media (final 0.5% DMSO) were added to the cells and incubated for an additional 3 hours. After incubation, the plates were centrifuged at 2000 rpm for 5 min. The cells were then lysed in 100 μl RIPA buffer and vortexed for 30 minutes at room temperature. 25 μl of lysate was then transferred to clear polystyrene High Bind plates that had been previously coated with mouse anti-human IRF-3 capture antibody (BD Pharmigen), and allowed to incubate at 4° C. for 16 hours. The plates were then washed and incubated with rabbit anti-phospho-IRF3 detection antibody (Cell Signaling Technologies) for 1.5 hours at room temperature. Finally, an HRP-linked secondary antibody (Cell Signaling Technologies) was added for 30 min before the Glo Substrate Reagent (R&D Systems) was used generate the luminescent signal. The signal was measured using a Perkin-Elmer Envision microplate reader. Data were normalized to “% effect” with a positive control STING agonist that was known to maximize the phosphorylated IRF3 signal and the negative control was DMSO.

STING [2] = biological target: T1, STING; experiment: Interferon-β induction: THP-1 Lucia ISG reporter cell line; format: cell-based; details: THP-1 Lucia ISG cells, 24 hours incubation, luciferase reporter; read-out: THP-1 Lucia ISG Cells IFN-β EC50
Description: Interferon-β Induction: THP-1 ISG Reporter Cell Line
THP-1 Lucia™ ISG cells (InvivoGen) express the secreted luciferase “Lucia” reporter gene under the control of an IRF-inducible composite promotor comprised of five interferon response elements. THP-1 Lucia™ ISG cells were grown in RPMI media plus 2 mM L-glutamine, 10% fetal bovine serum, and 0.5% Pen-Strep. Hygromycin B and Zeocin were present to maintain stable transfection. 10^4 cells were seeded in 96-well plates and incubated overnight 37° C., 5% CO2. 50 μL of serial diluted compounds in media (final 0.5% DMSO) was and incubated for an additional 24 hours. After incubation, the plates were centrifuged at 2000 rpm for 10 min. 50 μl of cell culture supernatant of each well was transferred to a white, opaque 96-well plate. One pouch of QUANTI-Luc™ (InvivoGen) powder was prepared in 25 mL of endotoxin-free water and 100 μL of prepared warm QUANTI-Luc solution were added to each well containing the supernatant. The luminescence signal was measured using a Perkin-Elmer Envision microplate reader. Data were normalized to “% effect” with a positive control STING agonist that was known to maximize the luciferase signal and the negative control DMSO.

R232-STING = R232-STING (Homo sapiens, UniProt Q86WV6, H232R); experiment: biochemical
R232-STING, sequence (Q86WV6 155-341 H232R): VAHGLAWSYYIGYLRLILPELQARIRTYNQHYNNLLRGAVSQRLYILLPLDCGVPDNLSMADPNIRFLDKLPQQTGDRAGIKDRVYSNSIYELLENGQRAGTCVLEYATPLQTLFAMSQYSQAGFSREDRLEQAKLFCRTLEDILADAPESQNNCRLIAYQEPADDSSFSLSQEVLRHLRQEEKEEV

Structure (SMILES)	pEC50 (STING [1])	pEC50 (STING [2])	pKi (R232-STING)
Cc1nn(CCC(=O)O)c(-c2n[nH]c(-c3nc(C(N)=O)cc4c3cnn4C)n2)c1O [YY32, 3-{5-[5-(6-carbamoyl-1-methyl-1H-pyrazolo[4,3-c]pyridin-4-yl)-1H-1,2,4-triazol-3-yl]-4-hydroxy-3-methyl-1H-pyrazol-1-yl}propanoic acid]	< 4.95	< 5.00	8.14
CCn1nc(C)cc1-c1nc(-c2nc(C(N)=O)cc3c2cnn3C)n(C)n1 [Example J01, 4-[3-(1-ethyl-3-methyl-1H-pyrazol-5-yl)-1-methyl-1H-1,2,4-triazol-5-yl]-1-methyl-1H-pyrazolo[4,3-c]pyridine-6-carboxamide]	6.28	6.29	7.85
Cc1cc(-c2nc(-c3nc(C(N)=O)cc4c3cnn4C)c(CN)s2)n(CCCO)n1 [Example AF01, 4-{5-(aminomethyl)-2-[1-(3-hydroxypropyl)-3-methyl-1H-pyrazol-5-yl]-1,3-thiazol-4-yl}-1-methyl-1H-pyrazolo[4,3-c]pyridine-6-carboxamide]	5.23	5.28	6.86
CCn1nc(C)cc1-c1n[nH]c(-c2cc(C(N)=O)cc3nn(C)cc23)n1 [Example C01, 4-[3-(1-ethyl-3-methyl-1H-pyrazol-5-yl)-1H-1,2,4-triazol-5-yl]-2-methyl-2H-indazole-6-carboxamide]	≤ 4.00	4.34	6.64
CCn1nc(C)cc1-c1n[nH]c(-c2cc(C(N)=O)cc3c(C)n[nH]c23)n1 [Example L01, 7-[3-(1-ethyl-3-methyl-1H-pyrazol-5-yl)-1H-1,2,4-triazol-5-yl]-3-methyl-1H-indazole-5-carboxamide]	5.51	5.49	7.18
Cc1cc(-c2n[nH]c(-c3cc(C(N)=O)cc4c3cnn4C(F)F)n2)n(CCC(=O)O)n1 [YY20, 3-(5-{5-[6-carbamoyl-1-(difluoromethyl)-1H-indazol-4-yl]-1H-1,2,4-triazol-3-yl}-3-methyl-1H-pyrazol-1-yl)propanoic acid]	< 4.00	< 4.00	6.77
CCn1nc(C)c(F)c1-c1nc(-c2nc(C(N)=O)cc3c2cnn3CC(CO)CO)n(C)n1 [Example Y01, 4-[3-(1-ethyl-4-fluoro-3-methyl-1H-pyrazol-5-yl)-1-methyl-1H-1,2,4-triazol-5-yl]-1-[3-hydroxy-2-(hydroxymethyl)propyl]-1H-pyrazolo[4,3-c]pyridine-6-carboxamide]	5.15	5.13	7.57
Cc1nn(CCO)c(-c2nnc(-c3nc(C(N)=O)cc4c3cnn4C)[nH]2)c1O [Example V01, 4-{5-[4-hydroxy-1-(2-hydroxyethyl)-3-methyl-1H-pyrazol-5-yl]-4H-1,2,4-triazol-3-yl}-1-methyl-1H-pyrazolo[4,3-c]pyridine-6-carboxamide]	6.05	6.23	8.16
CCn1nc(CO)cc1-c1n[nH]c(-c2nc(C(N)=O)cc3c2cnn3C)n1 [YY30, 4-{3-[1-ethyl-3-(hydroxymethyl)-1H-pyrazol-5-yl]-1H-1,2,4-triazol-5-yl}-1-methyl-1H-pyrazolo[4,3-c]pyridine-6-carboxamide]	< 4.88	< 4.48	7.38
CCn1cc(C)c(O)c1-c1nc(-c2nc(C(N)=O)cc3c2cnn3C)cs1 [Example AG01, 4-[2-(1-ethyl-3-hydroxy-4-methyl-1H-pyrrol-2-yl)-1,3-thiazol-4-yl]-1-methyl-1H-pyrazolo[4,3-c]pyridine-6-carboxamide]	6.62	6.47	8.08
Cc1cc(-c2nc(-c3nc(C(N)=O)cc4c3cnn4C)c(CN)o2)n(CCCO)n1 [Example U04]	5.70	5.73	7.46
Cc1nn(CCCO)c(-c2nc(-c3nc(C(N)=O)cc4c3cnn4C)c(CN)s2)c1O [Example AF02]	5.65	5.71	7.94
CCn1nc(C)cc1-c1nnc(-c2cc(C(N)=O)cc3c2cnn3CCN(C)C)[nH]1 [YY04, 1-[2-(dimethylamino)ethyl]-4-[5-(1-ethyl-3-methyl-1H-pyrazol-5-yl)-4H-1,2,4-triazol-3-yl]-1H-indazole-6-carboxamide]	< 4.00	< 4.00	< 6.19

Next, values leading:

pEC50 (STING [1])	pEC50 (STING [2])	pKi (R232-STING)	Structure (SMILES)
4.78	4.65	6.56	CCn1nc(C)cc1-c1n[nH]c(-c2cc(C(N)=O)cc3c2cnn3CCN2CCC(F)(F)CC2)n1 [Example M02]
6.60	6.62	7.88	CCn1nc(C)c(Cl)c1-c1nc(-c2cc(C(N)=O)cc3c2cnn3C)n[nH]1 [Example C04, 4-[5-(4-chloro-1-ethyl-3-methyl-1H-pyrazol-5-yl)-1H-1,2,4-triazol-3-yl]-1-methyl-1H-indazole-6-carboxamide]
6.85	6.89	8.33	CCn1nc(C)c(F)c1-c1n[nH]c(-c2nc(C(N)=O)cc3c2cnn3C)n1 [Example C08, 4-[3-(1-ethyl-4-fluoro-3-methyl-1H-pyrazol-5-yl)-1H-1,2,4-triazol-5-yl]-1-methyl-1H-pyrazolo[4,3-c]pyridine-6-carboxamide]
< 5.00	< 4.95	6.78	CCn1nc(C)c(O)c1-c1n[nH]c(-c2nc(C(N)=O)cc3c2cnn3CCN2CC(F)C2)n1 [YY33, 4-[3-(1-ethyl-4-hydroxy-3-methyl-1H-pyrazol-5-yl)-1H-1,2,4-triazol-5-yl]-1-[2-(3-fluoroazetidin-1-yl)ethyl]-1H-pyrazolo[4,3-c]pyridine-6-carboxamide]
4.01	4.03	6.56	CCn1nc(C)c(F)c1-c1nc(-c2cc(C(N)=O)cc3c2cnn3CCCN2CCOCC2)n[nH]1 [Example C06, 4-[5-(1-ethyl-4-fluoro-3-methyl-1H-pyrazol-5-yl)-1H-1,2,4-triazol-3-yl]-1-[3-(morpholin-4-yl)propyl]-1H-indazole-6-carboxamide]
4.50	4.56	6.78	CCn1nc(C)c(F)c1-c1nc(-c2cc(C(N)=O)cc3c2cnn3CCN2CCOCC2)n[nH]1 [Example C05, 4-[5-(1-ethyl-4-fluoro-3-methyl-1H-pyrazol-5-yl)-1H-1,2,4-triazol-3-yl]-1-[2-(morpholin-4-yl)ethyl]-1H-indazole-6-carboxamide]
< 4.48	< 4.48	6.85	CCn1nc(C)cc1-c1n[nH]c(-c2cc(C(N)=O)cc3c2cnn3CCN2CCOC3(CCCC3)C2)n1 [YY28, 4-[3-(1-ethyl-3-methyl-1H-pyrazol-5-yl)-1H-1,2,4-triazol-5-yl]-1-[2-(6-oxa-9-azaspiro[4.5]decan-9-yl)ethyl]-1H-indazole-6-carboxamide]
5.94	5.93	7.52	CCn1nc(C)c(F)c1-c1c[nH]c(-c2cc(C(N)=O)cc3c2cnn3C)n1 [Example G02]
< 4.00	< 4.00	7.33	Cc1nn(CCC(=O)O)c(-c2n[nH]c(-c3cc(C(N)=O)cc4c3cnn4C)n2)c1F [YY06, 3-{5-[5-(6-carbamoyl-1-methyl-1H-indazol-4-yl)-1H-1,2,4-triazol-3-yl]-4-fluoro-3-methyl-1H-pyrazol-1-yl}propanoic acid]
< 4.00	< 4.00	6.40	Cc1nn(CCC(=O)O)c(-c2n[nH]c(-c3cc(C(N)=O)cc4c3cnn4C)n2)c1Cl [YY05, 3-{5-[5-(6-carbamoyl-1-methyl-1H-indazol-4-yl)-1H-1,2,4-triazol-3-yl]-4-chloro-3-methyl-1H-pyrazol-1-yl}propanoic acid]
6.11	6.17	7.03	CCn1nc(C)c(F)c1-c1nc(-c2cc(C(N)=O)cn3c(C)ncc23)n[nH]1 [Example F01, 8-[5-(1-ethyl-4-fluoro-3-methyl-1H-pyrazol-5-yl)-1H-1,2,4-triazol-3-yl]-3-methylimidazo[1,5-a]pyridine-6-carboxamide]
